According to patent US20090062208A1, “Methods for maintaining blood-brain barrier integrity in hypertensive subjects using a delta-PKC inhibitor” (priority 2007, published 2009):

Columns and labels:
middle cerebral arteries = details: DS rats; Payne and Smeda 2002; cited from earlier work
[1] = test system: zonula occludens 1 (ZO-1), and occludin; assay: Immunoblot analysis of blood brain barrier-related proteins; assay type: in vivo, rat; details: hypertensive DS rats
Procedure: (§1) The rats were subcutaneously infused (i.e., treated) with a saline solution, a control TAT peptide (YGRKKRRQRRR, SEQ ID NO:85), or the peptide inhibitor δV1-1 (SFNSYELGSL, SEQ ID NO: 1) attached via an N-terminal disulfide bond to TAT peptide (YGRKKRRQRRR-CC-SFNSYELGSL, SEQ ID NO:89), at a rate of 5.0 μL/hour, using an osmotic minipump. Treatment began at 11 weeks of age and survival rate and neurological deficits were recorded through week 15. Blood pressure was measured bi-weekly and blood-brain barrier disruption was assessed at 13 weeks by measuring Evans Blue dye extravasation. Proteomic analysis of brain samples was carried out to identify differences in the brains of control TAT peptide and δV1-1-treated animals. Blood brain barrier-related proteins were evaluated by immunoblot analysis.

[2] = test system: Dahl salt-sensitive (DS) rats; assay: Hypertension-induced stroke in Dahl salt-sensitive rats on high-salt diet (blood pressure, stroke incidence); assay type: in vivo, rat; details: hypertensive DS rats; for blood pressure: subcutaneous infusion by osmotic minipump, versus control TAT peptide
Procedure: (§2) As detailed in Example 1, Dahl salt-sensitive (DS) rats, which are a model for hypertension in humans, were used to evaluate the efficacy of δPKC inhibitor treatment. The animals were initially maintained on a low-salt (0.3% NaCl) diet then switched to a high-salt (8% NaCl) to induce hypertension. The rats were subcutaneously treated with either a saline solution, a control peptide (TAT, SEQ ID NO:85), or a δPKC peptide inhibitor. Blood pressure was measured bi-weekly and blood-brain barrier (BBB) disruption was assessed at the end of the treatment period. Proteomic analysis of brain samples was carried out to identify differences in the brains of control TAT peptide and δV1-1-treated animals.
Male Dahl salt-sensitive (DS) rats were maintained on a low-salt (0.3% NaCl) diet until 6 weeks of age. The animals were then switched to a high-salt (8% NaCl) diet until 15 weeks of age. The animals were monitored daily for symptoms of systemic hypertension.
as §1

blood-brain barrier = assay: Blood-brain barrier disruption by Evans Blue dye extravasation; assay type: in vivo, rat; details: hypertensive DS rats, at 13 weeks, n=6, p<0.01
Procedure: as §2
as §1, with “Proteomic analysis of brain samples was carried out to identify differences in the brains of control TAT peptide and δV1-1-treated animals.” left out

transferrin and actin = assay: Proteomic analysis of brain samples; assay type: in vivo, rat; details: brain samples taken at 13 weeks of age, continuous administration
Procedure: as §2
as §1, with “Proteomic analysis of brain samples was carried out to identify differences in the brains of control TAT peptide and δV1-1-treated animals.” left out

Row | Compound | middle cerebral artery constriction in response to elevated blood pressure (middle cerebral arteries) | hypertension-induced redistribution of tight junction-related proteins ZO-1 and occludin [1] | incidence of stroke (and stroke-associated symptoms) ([2]; relative to the TAT control group, n=24, p<0.01) | blood pressure ([2]; listed as δPKC inhibitor) | blood pressure ([2]; listed as δV1-1 peptide) | Evans Blue extravasation into the brain parenchyma (blood-brain barrier) | increased levels of transferrin and actin in brain samples (transferrin and actin)
1 | COc1ccc2c(c[n+](C)c3c4cc5c(cc4ccc23)OCO5)c1OC [chelerythrine] | inhibited constriction | – | – | – | – | – | –
2 | YGRKKRRQRRR-CC-SFNSYELGSL [δV1-1] | – | blocked | significantly decreased | similar | identical | reduced | attenuated
3 | bisindolylmaleimide | inhibited constriction | – | – | – | – | – | –
